IC50 data for 2 compounds are collected here from PMC7647070, “Mechanisms of QT prolongation by buprenorphine cannot be explained by direct hERG channel block” (PLoS ONE, 2020).

For data set [1], the target named is T1, hERG1a/1b (heteromeric hERG channel, IhERG) (Homo sapiens, UniProt Q12809).
T1 construct: gene KCNH2
In words: whole-cell patch clamp, tail current.

For data set [2], the target named is T2, hERG1a (homomeric hERG channel, IhERG) (Homo sapiens, UniProt Q12809).
T2 construct: gene KCNH2
The data set can be described thus: whole-cell patch clamp, tail current.

The target in data set [3] is T2, hERG1a (homomeric hERG channel, IhERG).
Data set [4] has as its target T1, hERG1a/1b (heteromeric hERG channel, IhERG).

Like-named read-outs stand apart in the source and are kept apart here.

T1 sequence (Q12809 whole entry): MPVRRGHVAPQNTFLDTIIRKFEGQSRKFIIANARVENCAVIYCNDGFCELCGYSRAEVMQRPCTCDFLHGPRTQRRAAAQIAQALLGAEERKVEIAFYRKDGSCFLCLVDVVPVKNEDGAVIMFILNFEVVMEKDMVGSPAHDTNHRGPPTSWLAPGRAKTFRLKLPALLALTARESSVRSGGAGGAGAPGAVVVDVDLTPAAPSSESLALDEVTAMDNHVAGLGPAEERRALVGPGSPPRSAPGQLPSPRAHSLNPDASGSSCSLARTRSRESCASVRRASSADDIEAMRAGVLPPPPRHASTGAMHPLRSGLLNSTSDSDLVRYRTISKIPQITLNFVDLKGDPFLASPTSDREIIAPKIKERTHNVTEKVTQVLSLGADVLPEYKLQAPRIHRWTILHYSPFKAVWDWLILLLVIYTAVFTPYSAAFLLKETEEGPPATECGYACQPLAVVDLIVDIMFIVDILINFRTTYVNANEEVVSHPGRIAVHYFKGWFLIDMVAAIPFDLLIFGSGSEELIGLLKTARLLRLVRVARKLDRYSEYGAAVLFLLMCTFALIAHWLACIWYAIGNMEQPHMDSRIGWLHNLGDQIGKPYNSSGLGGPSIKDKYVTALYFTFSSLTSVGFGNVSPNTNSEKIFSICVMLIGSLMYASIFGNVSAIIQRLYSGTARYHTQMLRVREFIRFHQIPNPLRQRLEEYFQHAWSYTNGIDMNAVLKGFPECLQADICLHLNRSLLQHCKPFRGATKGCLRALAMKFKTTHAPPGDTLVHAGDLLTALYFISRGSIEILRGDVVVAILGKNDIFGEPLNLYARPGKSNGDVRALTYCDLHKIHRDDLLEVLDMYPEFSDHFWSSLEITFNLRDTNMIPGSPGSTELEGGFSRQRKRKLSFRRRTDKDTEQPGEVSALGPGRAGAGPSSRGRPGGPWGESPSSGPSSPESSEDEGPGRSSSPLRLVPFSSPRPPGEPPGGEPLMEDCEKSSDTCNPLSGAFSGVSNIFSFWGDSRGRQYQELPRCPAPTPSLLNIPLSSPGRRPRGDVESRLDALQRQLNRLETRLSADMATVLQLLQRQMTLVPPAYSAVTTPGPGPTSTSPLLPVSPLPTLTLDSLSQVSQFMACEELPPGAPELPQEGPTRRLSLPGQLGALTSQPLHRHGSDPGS
T1 sequence (Q12809 377-1159 limits assumed): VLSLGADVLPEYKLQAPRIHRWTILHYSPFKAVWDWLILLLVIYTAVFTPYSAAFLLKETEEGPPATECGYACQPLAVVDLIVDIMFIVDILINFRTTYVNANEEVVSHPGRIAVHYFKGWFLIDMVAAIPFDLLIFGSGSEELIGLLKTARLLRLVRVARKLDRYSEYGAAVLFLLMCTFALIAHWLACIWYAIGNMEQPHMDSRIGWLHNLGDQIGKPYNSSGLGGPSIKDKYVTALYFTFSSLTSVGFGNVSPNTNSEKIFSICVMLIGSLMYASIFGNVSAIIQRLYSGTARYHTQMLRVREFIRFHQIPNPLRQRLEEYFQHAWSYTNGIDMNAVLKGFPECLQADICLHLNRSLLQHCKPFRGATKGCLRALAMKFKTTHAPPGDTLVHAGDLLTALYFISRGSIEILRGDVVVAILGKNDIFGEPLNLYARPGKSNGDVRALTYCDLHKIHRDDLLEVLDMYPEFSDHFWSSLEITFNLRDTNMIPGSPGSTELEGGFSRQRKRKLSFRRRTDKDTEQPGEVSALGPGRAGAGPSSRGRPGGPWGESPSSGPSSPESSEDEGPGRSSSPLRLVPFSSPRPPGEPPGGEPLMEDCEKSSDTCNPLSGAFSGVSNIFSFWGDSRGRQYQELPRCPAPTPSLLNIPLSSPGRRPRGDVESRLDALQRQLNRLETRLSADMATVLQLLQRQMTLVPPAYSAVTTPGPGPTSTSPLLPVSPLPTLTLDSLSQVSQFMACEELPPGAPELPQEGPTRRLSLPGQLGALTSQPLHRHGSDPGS
T2 sequence (Q12809 whole entry): as the sequence (Q12809 whole entry) above

As usually defined, the IC50 is the midpoint of a concentration-inhibition curve. `O=C1CC[C@@]2(O)[C@H]3Cc4ccc(O)c5c4[C@@]2(CCN3CC2CC2)[C@H]1O5` [Naltrexone]: the concentration for half-maximal inhibition (IC50) was 32.3 ± 8.6 µM in data set [1] and 31.1 ± 5.4 µM in data set [2].
`CO[C@]12CC[C@@]3(C[C@@H]1[C@](C)(O)C(C)(C)C)[C@H]1Cc4ccc(O)c5c4[C@@]3(CCN1CC1CC1)[C@H]2O5` [Buprenorphine]: the IC50 in data set [3] turned out to be 8.7 ± 0.4 µM; in data set [4], 6.9 ± 0.9 µM.
